These results are taken from patent US11020488B2, “Pyrroloquinolin compounds and methods of using same” (The Regents of the University of California, priority 2017, dated 2021).

pIC50: −log10 of the molar value. Like-named read-outs stand apart in the source and are kept apart here.

As a reminder, the pIC50 is the IC50 on a negative log10 scale, so that one unit is a factor of ten.

The subject of one data set is OVCAR-3. The conditions noted are these: first value of OVCAR-3/-5 cell, refs [9], [38], NCI-DTP database; cited from earlier work.
Data set [1] deals with PANC-1 cell line. The data set is described as follows: cells. The settings on record: for fold decrease in PANC-1 potency (PP<) relative to makaluvamine J (9) / fold decrease in PANC-1 potency (PP<) relative to makaluvamine A (1): '<' in PP codes a decrease in potency; for PANC-1 cytotoxic potency (words): PANC-1 (set of b111: PANC-1 and/or OVCAR tumor cells). From the text: The task of IC50 assessment for the natural products isolated in this study against the PANC-1 tumor cells line began immediately following the purification and characterization of each pyrrolo[4,3,2-de]quinoline obtained (FIG. 3). […] However, a sample of ammosamide B (17) was obtained from the NCI Molecular Targets Laboratory. Two additional clinically used compounds, etoposide and teniposide were also run in the assay.
The soft agar disk diffusion assay, IC50 determination, and clonogenic assay were performed as previously described.

For data set [2], the system named is PANC-1 cell line. The settings on record: cited from earlier work; for pIC50: read-out: PANC-1 IC50, PANC-1, literature data, refs [25], [26], [30].
The subject of data set [3] is OVCAR-5. The conditions noted are these: second value of OVCAR-3/-5 cell, ref [9], NCI-DTP database; cited from earlier work.
A further data set has as its system KB xenografts. The conditions noted are these: KB mouse model xenografts, ref [9]; cited from earlier work.
The test system of data set [4] is OVCAR-5. The data set is described as follows: IC50 determination against OVCAR-5 ovarian cancer cell line. The format is cell-based, human. The conditions noted are these: for pIC50: OVCAR-5, values of the text.
Experimental: The soft agar disk diffusion assay, IC50 determination, and clonogenic assay were performed as previously described [35].
The next data set relates to HCT-116 cells. As to the kind of experiment: Clonogenic dose-response assay, continuous exposure. The class given is cell-based. From the text:
FIG. 7 Evaluation of makaluvamine J (9) through clonogenic dose-response evaluation employing HCT-116 cells. Continuous exposure of the cells with 9 at different concentrations during periods of: 2 hr, 24 hr, or 120 hr. Efficacy is indicated when the surviving fraction is less than 0.1.
Accurate determination of the exposures required to achieve a useful in vivo therapeutic effect is the outcome being sought through clonogenic study. Illustrated here are data measuring the cytotoxic effect of makaluvamine J (9) at varying concentrations during continuous exposure. Other relevant data to be obtained in the future consists of: (a) repeating the clonogenic runs on makaluvamine acetate J (15), (b) obtaining the maximum tolerated dose (MTD) for both, and (c) assessing the pharmacokinetic behavior of these compounds measured in both plasma and tumors, (PANC-1 and OVC-5) at the MTD which will be tracked through by MS^2 data. The key measurement involved determining the required time-concentration profile to obtain a 90% kill (10% survival-S10) of tumor cells. […] At this juncture it appears that a chronic exposure for five days will be effective and the exact therapeutics regime will depend on the MTD determination data and future pharmacokinetic results.

The mark [5] stands for this setting: read-out: PANC-1 IC50, PANC-1 pancreatic tumor cell line.
The mark [6] stands for this setting: Homo sapiens, PANC-1, read-out: PANC-1 IC50, PANC-1 pancreatic tumor cell line.

For the compound `C[N+]1=C2C=C(N)C(=O)c3[nH]cc(c32)CC1.[Cl-]` [makaluvamine C (2), makaluvamine C], the pIC50 was 6.62 in the data set on OVCAR-3 and 6.14 in the data set on PANC-1 cell line [1] (setting [5]). Also, in the data set with PANC-1 cell line [1] (ratio of PANC-1 IC50), the “fold decrease in PANC-1 potency (PP<) relative to makaluvamine J (9)” value is recorded as 13.5 fold.
Regarding `Cn1cc2c3c1C(=O)C(N/C=C/c1ccc(O)cc1)=CC3=[N+](C)CC2` [makaluvamine G (8), makaluvamine G], in the data set on PANC-1 cell line [1] (setting [5]), the pIC50 was 5.21.
On the same count and under the same terms, the value for `CN1C(=O)c2cc(C(N)=O)nc3c(N)c(Cl)c(N)c1c23` [ammosamide B (17), ammosamide B, reference compound] was 4.59.
As to `CSc1c2ccnc3c2c(n1C)C(=O)C(N)=C3Cl` [isobatzelline D], the “cytotoxicity against PANC-1 cells (words)” value (“cytotoxicity” for short) with PANC-1 cell line [2] (literature surveys) is “moderate cytotoxicity”.
In the case of `COc1cc([C@@H]2c3cc4c(cc3[C@@H](O[C@@H]3O[C@@H]5CO[C@@H](C)O[C@H]5[C@H](O)[C@H]3O)[C@H]3COC(=O)[C@H]23)OCO4)cc(OC)c1O` [etoposide, reference compound], the pIC50 in the data set with PANC-1 cell line [1] (setting [6]) was 6.41.
For `Cn1cc2c3c1C(=O)C(N)=CC3=[N+](C)CC2.O=C([O-])C(F)(F)F` [makaluvamine H (4), makaluvamine H], the results for the pIC50 in the data set on OVCAR-3, with PANC-1 cell line [1] (setting [5]) and in the data set on OVCAR-5 [3] were 6.02, 5.44 and 7.00, respectively. For the same compound, the “fold decrease in PANC-1 potency (PP<) relative to makaluvamine A (1)” value with PANC-1 cell line [1] (ratio of PANC-1 IC50) is given as 7.9 fold. Moreover, the “T/C % (tumor volume in treated/tumor volume in untreated)” value in the data set with KB xenografts is on record as 38%.
Regarding `N=C1C(Cl)=C(N)C(=O)c2[nH]cc(C(O)CO)c21` (stereo not drawn) [secobatzelline A], in the data set on PANC-1 cell line [2] (literature surveys), the “cytotoxicity” value is reported as “moderate cytotoxicity”.
Turning to `C[N+]1=C2C=C(NCCc3ccc(O)cc3)C(=O)c3[nH]cc(c32)CC1` [makaluvamine J (9), makaluvamine J], the results for the pIC50 with OVCAR-5 [4] and in the data set with PANC-1 cell line [1] (setting [5]) were 6.92 and 7.27, respectively. Further, the “PANC-1 cytotoxic potency (words)” value with PANC-1 cell line [1] was “most potent”; in the data set with PANC-1 cell line [1] (listed as 9), “most potent IC50 values”. The “2S10, concentration for 90% kill (10% survival)” value in the data set with HCT-116 cells (HCT-116, 2 h exposure, extrapolated) is 3 µg/mL. In the data set with HCT-116 cells (HCT-116, 24 h exposure), the “24S10, concentration for 90% kill (10% survival)” value came to 400 ng/mL. Moreover, the “120S10, concentration for 90% kill (10% survival)” value in the data set with HCT-116 cells (HCT-116, 120 h exposure) was determined as 30 ng/mL. For the same compound, in the data set with HCT-116 cells (two hour dosing schedule), the “toxicity to HCT-116 cells” value is on record as “Little toxicity”.
Take `Cn1cc2c3c1C(=O)C(N)=CC3=NCC2` [makaluvamine A (1), makaluvamine A]: in the data set with PANC-1 cell line [1] (setting [5]), the pIC50 is 6.35.
For `COc1cc([C@@H]2c3cc4c(cc3[C@@H](O[C@@H]3O[C@@H]5CO[C@@H](c6cccs6)O[C@H]5[C@H](O)[C@H]3O)[C@H]3COC(=O)[C@H]23)OCO4)cc(OC)c1O` [teniposide, reference compound], the pIC50 in the data set with PANC-1 cell line [1] (setting [6]) is 7.40; in the data set with PANC-1 cell line [1] (setting [5]) it was 7.39.
Take “9-N-acetyl makaluvamine B [9-N-acetyl makaluvamine B (14)]”: in the data set on PANC-1 cell line [1] (ratio of PANC-1 IC50), the “fold decrease in PANC-1 potency (PP<) relative to makaluvamine A (1)” value was above 200 fold. In addition, the negative logarithm of the IC50 (pIC50) in the data set with PANC-1 cell line [1] (setting [5]) was 4.04.
Consider `CN1CCc2c[nH]c3c2C1=CC(=O)C3=O` [damirone B (3), damirone B], for which the pIC50 with PANC-1 cell line [1] (setting [5]) was 4.72.
Regarding `Cn1cc2c3c1C(=O)C(NCCc1ccc(O)cc1)=CC3=NCC2` [makaluvamine K (10), makaluvamine K], in the data set with PANC-1 cell line [1] (ratio of PANC-1 IC50), the “fold decrease in PANC-1 potency (PP<) relative to makaluvamine A (1)” value worked out at 1.2 fold and the “fold decrease in PANC-1 potency (PP<) relative to makaluvamine J (9)” value is 10.4 fold. In the data set with PANC-1 cell line [1] (setting [5]), the pIC50 was 6.25.
As to “15-O-acetyl makaluvamine J [15-O-acetyl makaluvamine J (15)]”, the pIC50 in the data set on OVCAR-5 [4] is 8.07; in the data set with PANC-1 cell line [1] (setting [5]) it was 7.09. Besides, in the data set with OVCAR-5 [4] (ratio of OVCAR-5 IC50), the “fold increase in OVCAR-5 potency over makaluvamine J (9)” value is listed as 14 fold. Moreover, the “PANC-1 cytotoxic potency (words)” value in the data set with PANC-1 cell line [1] is recorded as “most potent IC50 values”. Further, the “fold decrease in PANC-1 potency (PP<) relative to makaluvamine J (9)” value in the data set with PANC-1 cell line [1] (ratio of PANC-1 IC50) amounted to 1.5 fold.
Take “8,15-O-diacetyl-8-hydroxy-5a,7,8a-trien-makaluvamine J”: in the data set on PANC-1 cell line [1] (ratio of PANC-1 IC50), the “fold decrease in PANC-1 potency (PP<) relative to makaluvamine J (9)” value is recorded as around 10 fold. For the same compound, in the data set with PANC-1 cell line [1] (setting [5]), the pIC50 was 6.23.
Turning to makaluvamine D [makaluvamine D (7)], in the data set on PANC-1 cell line [1] (setting [5]), the pIC50 is 6.54.
For the compound `C[N+]1=C2C=C(N/C=C/c3ccc(O)cc3)C(=O)c3[nH]cc(c32)CC1.O=C([O-])C(F)(F)F` [makaluvamine L (11), makaluvamine L], the “fold decrease in PANC-1 potency (PP<) relative to makaluvamine J (9)” value with PANC-1 cell line [1] (ratio of PANC-1 IC50) turned out to be 35.0 fold. The pIC50 in the data set with PANC-1 cell line [1] (setting [5]) was 5.72.
As for `Cn1cc2c3c1C(=O)C(NCCc1ccc(O)cc1)=CC3=[N+](C)CC2.[Cl-]` [makaluvamine P (12), makaluvamine P], in the data set with PANC-1 cell line [1] (ratio of PANC-1 IC50, '>' in PP codes an increase in potency), the “fold increase in PANC-1 potency (PP>) relative to makaluvamine H (4)” value was 12.3. Also, the pIC50 in the data set on PANC-1 cell line [1] (setting [5]) is 6.52.
makaluvamine I [reference compound]: the “T/C % (tumor volume in treated/tumor volume in untreated)” value with KB xenografts was 34%.
Turning to `CN1CCc2cn(C)c3c2C1=CC(=O)C3=O` [damirone A (5), damirone A], the pIC50 in the data set on PANC-1 cell line [1] (setting [5]) is 3.80.
As to `O=C1C(NCc2ccc(F)cc2)=CC2=NCCc3c[nH]c1c32` [FBA-TBQ (18), 7-(4-fluorobenzylamino)-1,3,4,8-tetrahydropyrrolo[4,3,2-de]quinolin-8(1H)-one, reference compound], in the data set on OVCAR-3, the pIC50 is 6.02. Moreover, the “less potent than makaluvamine J (9) against PANC-1” value with PANC-1 cell line [1] (comparison of PANC-1 IC50 with 9) is around 50%. Moreover, in the data set with PANC-1 cell line [2], the “cytotoxicity” value was “moderate cytotoxicity” and the pIC50 is 6.96.
In the case of damirone D [damirone D (6)], the pIC50 in the data set on PANC-1 cell line [1] (setting [5]) is 5.47.
`Nc1ccn([C@@H]2O[C@H](CO)[C@@H](O)C2(F)F)c(=O)n1` [gemcitabine]: the pIC50 in the data set on PANC-1 cell line [2] is 5.14.
Turning to `Cn1cc2c3c1C(=O)C(N)=C(Cl)C3=NCC2` [isobatzelline C (19), isobatzelline C], the “cytotoxicity” value with PANC-1 cell line [2] (literature surveys, listed as 19) was “relatively inactive”; with PANC-1 cell line [2] (literature surveys, listed as isobatzelline C), “moderate cytotoxicity”. The pIC50 in the data set on PANC-1 cell line [2] is 5.00.
With `CSc1c2c3c(n1C)C(=O)C(N)=C(Cl)C3=NCC2` [isobatzelline A], the “cytotoxicity” value with PANC-1 cell line [2] (literature surveys) was “moderate cytotoxicity”.
